According to PubChem BioAssay AID1745844 (Carcinogenic Potency Database (CPDB), 2022):
Where “and” joins values, the source holds several entries; their conditions need not be identical. Equal entries are not always repeated. Calls of active or inactive are those of the source. The rule behind the calls is not given here.

System: rodent lifetime carcinogenesis bioassay, tumor incidence TD50
Experiment: carcinogenic potency in animals, long-term in vivo studies, CPDB compilation (AID 1745844)

Q: With `Nc1ccc(-c2ccc(N)cc2)cc1` as the compound, how does the TD50 (mouse, strain C57BL/6JfC3Hf/Nctr x BALB/cStCrlfC3Hf/Nctr inter se, females, in drinking water, site: Harderian gland, lesion: adenoma, dosed 143 weeks, study length 143 weeks) read?
A: The TD50 was 41.1 mg/kg/day.

Q: What about the TD50 (mouse, strain C57BL/6JfC3Hf/Nctr x BALB/cStCrlfC3Hf/Nctr inter se, females, in drinking water, site: liver, lesion: hepatocellular adenoma, dosed 60 weeks, study length 60 weeks) of the same compound?
A: Its TD50 is 30.2 mg/kg/day.

Q: And the TD50 (mouse, strain C57BL/6JfC3Hf/Nctr x BALB/cStCrlfC3Hf/Nctr inter se, females, in drinking water, site: liver, lesion: hepatocellular adenoma, dosed 80 weeks, study length 80 weeks)?
A: The TD50 was 78.7 mg/kg/day.

Q: What about the TD50 (mouse, strain C57BL/6JfC3Hf/Nctr x BALB/cStCrlfC3Hf/Nctr inter se, females, in drinking water, site: liver, lesion: hepatocellular carcinoma, dosed 60 weeks, study length 60 weeks) of the same compound?
A: Its TD50 is 17.9 mg/kg/day.

Q: What about the TD50 (mouse, strain C57BL/6JfC3Hf/Nctr x BALB/cStCrlfC3Hf/Nctr inter se, females, in drinking water, site: liver, lesion: hepatocellular carcinoma, dosed 80 weeks, study length 80 weeks) of the same compound?
A: The TD50 was 9.6 mg/kg/day.

Q: What about the TD50 (mouse, strain C57BL/6JfC3Hf/Nctr x BALB/cStCrlfC3Hf/Nctr inter se, females, in drinking water, site: liver, lesion: hepatocellular carcinoma, dosed 143 weeks, study length 143 weeks) of the same compound?
A: The TD50 was 18.9 mg/kg/day.

Q: And the TD50 (mouse, strain C57BL/6JfC3Hf/Nctr x BALB/cStCrlfC3Hf/Nctr inter se, females, in drinking water, site: uterus, lesion: angioma, dosed 143 weeks, study length 143 weeks)?
A: Its TD50 is 402 mg/kg/day.

Q: What about the TD50 (mouse, strain C57BL/6JfC3Hf/Nctr x BALB/cStCrlfC3Hf/Nctr inter se, males, in drinking water, site: Harderian gland, lesion: adenoma, dosed 143 weeks, study length 143 weeks) of the same compound?
A: The TD50 was 208 mg/kg/day.

Q: What about the TD50 (mouse, strain C57BL/6JfC3Hf/Nctr x BALB/cStCrlfC3Hf/Nctr inter se, males, in drinking water, site: liver, lesion: hepatocellular adenoma, dosed 60 weeks, study length 60 weeks) of the same compound?
A: Its TD50 is 67.7 mg/kg/day.

Q: And the TD50 (mouse, strain C57BL/6JfC3Hf/Nctr x BALB/cStCrlfC3Hf/Nctr inter se, males, in drinking water, site: liver, lesion: hepatocellular adenoma, dosed 80 weeks, study length 80 weeks)?
A: The TD50 was 186 mg/kg/day.

Q: What about the TD50 (mouse, strain C57BL/6JfC3Hf/Nctr x BALB/cStCrlfC3Hf/Nctr inter se, males, in drinking water, site: liver, lesion: hepatocellular carcinoma, dosed 60 weeks, study length 60 weeks) of the same compound?
A: The TD50 was 74.3 mg/kg/day.

Q: What about the TD50 (mouse, strain C57BL/6JfC3Hf/Nctr x BALB/cStCrlfC3Hf/Nctr inter se, males, in drinking water, site: liver, lesion: hepatocellular carcinoma, dosed 80 weeks, study length 80 weeks) of the same compound?
A: The TD50 was 39 mg/kg/day.

Q: And the TD50 (mouse, strain C57BL/6JfC3Hf/Nctr x BALB/cStCrlfC3Hf/Nctr inter se, males, in drinking water, site: liver, lesion: hepatocellular carcinoma, dosed 143 weeks, study length 143 weeks)?
A: The TD50 was 60.5 mg/kg/day.

Q: And the TD50 (mouse, strain C57BL/6JfC3Hf/Nctr x BALB/cStCrlfC3Hf/Nctr, females, in drinking water, site: Harderian gland, lesion: adenoma, dosed 143 weeks, study length 143 weeks)?
A: Its TD50 is 51.7 mg/kg/day.

Q: What about the TD50 (mouse, strain C57BL/6JfC3Hf/Nctr x BALB/cStCrlfC3Hf/Nctr, females, in drinking water, site: liver, lesion: hepatocellular adenoma, dosed 60 weeks, study length 60 weeks) of the same compound?
A: Its TD50 is 24.7 mg/kg/day.

Q: What about the TD50 (mouse, strain C57BL/6JfC3Hf/Nctr x BALB/cStCrlfC3Hf/Nctr, females, in drinking water, site: liver, lesion: hepatocellular adenoma, dosed 79 weeks, study length 80 weeks) of the same compound?
A: Its TD50 is 41.9 mg/kg/day.

Q: What about the TD50 (mouse, strain C57BL/6JfC3Hf/Nctr x BALB/cStCrlfC3Hf/Nctr, females, in drinking water, site: liver, lesion: hepatocellular carcinoma, dosed 60 weeks, study length 60 weeks) of the same compound?
A: The TD50 was 17.1 mg/kg/day.

Q: What about the TD50 (mouse, strain C57BL/6JfC3Hf/Nctr x BALB/cStCrlfC3Hf/Nctr, females, in drinking water, site: liver, lesion: hepatocellular carcinoma, dosed 79 weeks, study length 80 weeks) of the same compound?
A: Its TD50 is 8.99 mg/kg/day.

Q: And the TD50 (mouse, strain C57BL/6JfC3Hf/Nctr x BALB/cStCrlfC3Hf/Nctr, females, in drinking water, site: liver, lesion: hepatocellular carcinoma, dosed 143 weeks, study length 143 weeks)?
A: The TD50 was 10.9 mg/kg/day.

Q: And the TD50 (mouse, strain C57BL/6JfC3Hf/Nctr x BALB/cStCrlfC3Hf/Nctr, females, in drinking water, site: uterus, lesion: angioma, dosed 143 weeks, study length 143 weeks)?
A: The TD50 was 335 mg/kg/day.

Q: And the TD50 (mouse, strain C57BL/6JfC3Hf/Nctr x BALB/cStCrlfC3Hf/Nctr, males, in drinking water, site: Harderian gland, lesion: adenoma, dosed 143 weeks, study length 143 weeks)?
A: Its TD50 is 129 mg/kg/day.

Q: What about the TD50 (mouse, strain C57BL/6JfC3Hf/Nctr x BALB/cStCrlfC3Hf/Nctr, males, in drinking water, site: liver, lesion: hepatocellular adenoma, dosed 60 weeks, study length 60 weeks) of the same compound?
A: The TD50 was 60.8 mg/kg/day.

Q: What about the TD50 (mouse, strain C57BL/6JfC3Hf/Nctr x BALB/cStCrlfC3Hf/Nctr, males, in drinking water, site: liver, lesion: hepatocellular adenoma, dosed 80 weeks, study length 80 weeks) of the same compound?
A: The TD50 was 94.8 mg/kg/day.

Q: And the TD50 (mouse, strain C57BL/6JfC3Hf/Nctr x BALB/cStCrlfC3Hf/Nctr, males, in drinking water, site: liver, lesion: hepatocellular carcinoma, dosed 60 weeks, study length 60 weeks)?
A: The TD50 was 97.5 mg/kg/day.

Q: And the TD50 (mouse, strain C57BL/6JfC3Hf/Nctr x BALB/cStCrlfC3Hf/Nctr, males, in drinking water, site: liver, lesion: hepatocellular carcinoma, dosed 80 weeks, study length 80 weeks)?
A: Its TD50 is 33.2 mg/kg/day.

Q: What about the TD50 (mouse, strain C57BL/6JfC3Hf/Nctr x BALB/cStCrlfC3Hf/Nctr, males, in drinking water, site: liver, lesion: hepatocellular carcinoma, dosed 143 weeks, study length 143 weeks) of the same compound?
A: The TD50 was 31.2 mg/kg/day.

Q: With `C[C@@H]1CCCCN1N=O` as the compound, how does the TD50 (rat, strain Sprague-Dawley, both sexes, in drinking water, site: any site (literature study), lesion: malignant tumor, dosed 104 weeks, study length 104 weeks) read?
A: The TD50 was 20.4 mg/kg/day.

Q: What about the TD50 (rat, strain Sprague-Dawley, both sexes, in drinking water, site: liver, lesion: hepatocellular adenoma, dosed 104 weeks, study length 104 weeks) of the same compound?
A: Its TD50 is 108 mg/kg/day.

Q: And the TD50 (rat, strain Sprague-Dawley, both sexes, in drinking water, site: n. olfactorius, lesion: ependymoblastoma, dosed 104 weeks, study length 104 weeks)?
A: Its TD50 is 22.1 mg/kg/day.

Q: Which results are given for `Cc1ccc(N)cc1N`?
A: TD50 (mouse, strain B6C3F1, females, in feed, site: all sites, lesion: leukemia + lymphoma, dosed 101 weeks, study length 101 weeks): 10.6 mg/kg/day; TD50 (mouse, strain B6C3F1, females, in feed, site: any site (literature study), lesion: several types, types named in the paper, dosed 101 weeks, study length 101 weeks): 8.64 mg/kg/day; TD50 (mouse, strain B6C3F1, females, in feed, site: liver, lesion: hepatocellular adenoma + hepatocellular carcinoma + neoplastic nodule, dosed 101 weeks, study length 101 weeks): 26.7 mg/kg/day; TD50 (mouse, strain B6C3F1, females, in feed, site: liver, lesion: hepatocellular carcinoma, dosed 101 weeks, study length 101 weeks): 26.7 mg/kg/day; TD50 (mouse, strain B6C3F1, males, in feed, site: any site (literature study), lesion: several types, types named in the paper, dosed 101 weeks, study length 101 weeks): 105 mg/kg/day; TD50 (mouse, strain B6C3F1, males, in feed, site: lung, lesion: alveolar/bronchiolar adenoma + alveolar/bronchiolar carcinoma, dosed 101 weeks, study length 101 weeks): 35.8 mg/kg/day; TD50 (mouse, strain B6C3F1, males, in feed, site: lung, lesion: alveolar/bronchiolar carcinoma, dosed 101 weeks, study length 101 weeks): 35.8 mg/kg/day (inactive); TD50 (mouse, strain CD-1 HaM/ICR, females, in feed, site: any site (literature study), lesion: several types, types named in the paper, dosed 77 weeks, study length 90 weeks): 100 mg/kg/day; TD50 (mouse, strain CD-1 HaM/ICR, females, in feed, site: liver, lesion: hepatoma, dosed 77 weeks, study length 90 weeks): 206 mg/kg/day; TD50 (mouse, strain CD-1 HaM/ICR, females, in feed, site: liver, lesion: several types, types named in the paper, dosed 77 weeks, study length 90 weeks): 180 mg/kg/day; TD50 (mouse, strain CD-1 HaM/ICR, females, in feed, site: lung, lesion: several types, types named in the paper, dosed 77 weeks, study length 90 weeks): 72 mg/kg/day (inactive); TD50 (mouse, strain CD-1 HaM/ICR, males, in feed, site: all sites, lesion: all vascular tumors, dosed 77 weeks, study length 90 weeks): 317 mg/kg/day; TD50 (mouse, strain CD-1 HaM/ICR, males, in feed, site: liver, lesion: hepatoma, dosed 77 weeks, study length 90 weeks): 201 mg/kg/day; TD50 (mouse, strain CD-1 HaM/ICR, males, in feed, site: liver, lesion: several types, types named in the paper, dosed 77 weeks, study length 90 weeks): 191 mg/kg/day; carcinogen call (mouse, strain CD-1 HaM/ICR, males, in feed, site: lung, lesion: several types, types named in the paper, dosed 77 weeks, study length 90 weeks): negative (inactive); TD50 (rat, strain Charles River CD (Sprague-Dawley), males, in feed, site: any site (literature study), lesion: several types, types named in the paper, dosed 64 weeks, study length 73 weeks): 2.98 mg/kg/day; TD50 (rat, strain Charles River CD (Sprague-Dawley), males, in feed, site: liver, lesion: hepatoma, dosed 64 weeks, study length 73 weeks): 22.2 mg/kg/day; TD50 (rat, strain Charles River CD (Sprague-Dawley), males, in feed, site: liver, lesion: several types, types named in the paper, dosed 64 weeks, study length 73 weeks): 26.2 mg/kg/day; TD50 (rat, strain Charles River CD (Sprague-Dawley), males, in feed, site: subcutaneous tissue, lesion: fibroma, dosed 64 weeks, study length 73 weeks): 5.42 mg/kg/day and 4.42 mg/kg/day; TD50 (rat, strain Fischer 344, females, in feed, site: any site (literature study), lesion: several types, types named in the paper, dosed 93 weeks, study length 103 weeks): 1.46 mg/kg/day; TD50 (rat, strain Fischer 344, females, in feed, site: liver + mammary gland, lesion: hepatocellular carcinoma + neoplastic nodule + adenoma + carcinoma, dosed 93 weeks, study length 103 weeks): 1.43 mg/kg/day; TD50 (rat, strain Fischer 344, females, in feed, site: liver, lesion: hepatocellular adenoma + hepatocellular carcinoma + neoplastic nodule, dosed 93 weeks, study length 103 weeks): 58 mg/kg/day; TD50 (rat, strain Fischer 344, females, in feed, site: liver, lesion: hepatocellular carcinoma + neoplastic nodule, dosed 93 weeks, study length 103 weeks): 58 mg/kg/day; TD50 (rat, strain Fischer 344, females, in feed, site: mammary gland, lesion: adenoma + carcinoma, dosed 93 weeks, study length 103 weeks): 5.54 mg/kg/day; TD50 (rat, strain Fischer 344, females, in feed, site: mammary gland, lesion: adenoma, dosed 93 weeks, study length 103 weeks): 1.46 mg/kg/day; TD50 (rat, strain Fischer 344, females, in feed, site: mammary gland, lesion: carcinoma, dosed 93 weeks, study length 103 weeks): 8.98 mg/kg/day; TD50 (rat, strain Fischer 344, females, in feed, site: subcutaneous tissue, lesion: fibroma, dosed 93 weeks, study length 103 weeks): 16.4 mg/kg/day; TD50 (rat, strain Fischer 344, males, in feed, site: all sites, lesion: mesothelioma, dosed 91 weeks, study length 103 weeks): 6.81 mg/kg/day; TD50 (rat, strain Fischer 344, males, in feed, site: any site (literature study), lesion: several types, types named in the paper, dosed 91 weeks, study length 103 weeks): 0.991 mg/kg/day; TD50 (rat, strain Fischer 344, males, in feed, site: liver, lesion: hepatocellular adenoma + hepatocellular carcinoma + neoplastic nodule, dosed 91 weeks, study length 103 weeks): 8.11 mg/kg/day; TD50 (rat, strain Fischer 344, males, in feed, site: liver, lesion: hepatocellular carcinoma + neoplastic nodule, dosed 91 weeks, study length 103 weeks): 8.11 mg/kg/day; TD50 (rat, strain Fischer 344, males, in feed, site: subcutaneous tissue, lesion: fibroma, dosed 91 weeks, study length 103 weeks): 2.52 mg/kg/day; TD50 (rat, strain Fischer 344, males, in feed, site: subcutaneous tissue, lesion: lipoma, dosed 91 weeks, study length 103 weeks): 13.2 mg/kg/day

Q: With `CN(N=O)c1cccnc1` as the compound, how does the carcinogen call (rat, strain BD VI, females, by gavage, site: any site (literature study), lesion: benign tumor, dosed 116 weeks, study length 116 weeks) read?
A: The carcinogen call was “negative (inactive)”.

Q: And the TD50 (rat, strain BD VI, females, by gavage, site: any site (literature study), lesion: malignant tumor, dosed 116 weeks, study length 116 weeks)?
A: The TD50 was 6.09 mg/kg/day (inactive).

Q: What about the carcinogen call (rat, strain BD VI, females, by gavage, site: any site (literature study), lesion: several types, types named in the paper, dosed 116 weeks, study length 116 weeks) of the same compound?
A: The carcinogen call was “negative (inactive)”.

Q: What about the carcinogen call (rat, strain BD VI, females, by gavage, site: liver, lesion: several types, types named in the paper, dosed 116 weeks, study length 116 weeks) of the same compound?
A: The carcinogen call was “negative (inactive)”.
